Broadly, the pKi is −log10 of the Ki, conventionally taken in molar units. As usually defined, the pIC50 is the negative decadic logarithm of the IC50, by convention in mol/L.

Results on six compounds are retold here after patent US20120178815A1, “Compositions of (-)-E-10-OH-NT and Methods for Their Synthesis and Use” (Adolor Corporation, priority 2007, published 2012).

Series [1] deals with human NE transporter (hNET) (Homo sapiens, UniProt P23975). Kind of series: NE transporter competitive binding assay, [3H]nisoxetine. The conditions noted are these: Example 14; read-out: NET Ki. On the procedure:
(§1) Protocol. […] Bound radioactivity was determined by scintillation spectroscopy. Non-specific binding was defined as the amount of binding that occurred in the presence of 1.0 μM desipramine. The Ki values of the various test compounds were determined using standard methods.
as §1

For series [2], the target named is T1, human serotonin transporter (hSERT) (Homo sapiens, UniProt P31645).
T1 construct: expressed in transfected cells; host or cells: CHO cells (membranes)
Kind of series: 5HT transporter competitive binding assay, [3H]imipramine. The conditions noted are these: Example 14; read-out: SERT Ki. How it is done:
(§2) Bound radioactivity was determined by scintillation spectroscopy. […] The Ki values of the various test compounds were determined using standard methods.
as §2

Series [3] deals with L5 SNL rats, tactile allodynia. Kind of series: L5-Single Nerve Ligation model of neuropathic pain (von Frey). Format: in vivo, rat. The conditions noted are these: 30 mg/kg, i.p. On the procedure: Protocol. […] The test animals were placed in a Plexiglas chamber (10 cm×20 cm×25 cm) and habituated for 15 minutes. The chamber was positioned on top of a mesh screen so that von Frey monofilaments could be presented to the plantar surface of both hindpaws. Measurement of tactile sensitivity for each hindpaw were obtained using the up/down method (Dixon, 1980) with seven Frey monofilaments (0.4, 1, 2, 4, 6, 8 and 15 grams). Each trial started with a von Frey force of 2 grams delivered to the right hindpaw for approximately 1-2 seconds and then the left hindpaw. If there was no withdrawal response, the next higher force was delivered. If there was a response, the next lower force was delivered. This procedure was performed until no response was made at the highest force (15 grams) or until four stimuli were administered following the initial response. Each test group contained 8 animals. The sham-operated control group, which were operated on but not subject to nerve ligation, contained 4 animals. All animals were tested at 60 minutes, and 240 minutes, post-administration of test compounds.
The 50% paw withdrawal threshold for each paw was calculated using the following formula: [Xth] log=[vFr] log+ky where [vFr] is the force of the last von Frey used, k=0.2249 which is the average interval (in log units) between the von Frey monofilaments, and y is a value that depends upon the pattern of withdrawal responses (Dixon, 1980). […] Testing for tactile sensitivity was performed twice and the mean 50% withdrawal value assigned as the tactile sensitivity for the right and left paws for each animal.
The E-10-OH-NT compounds were administered as either a maleate or succinate salt. AT was administered as a hydrochloride salt. Dosage amounts are based on the amount of free base. The test animals were placed in a Plexiglas chamber (10 cm×20 cm×25 cm) and habituated for 15 minutes. The chamber was positioned on top of a mesh screen so that von Frey monofilaments could be presented to the plantar surface of both hindpaws. Measurement of tactile sensitivity for each hindpaw were obtained using the up/down method (Dixon, 1980) with seven Frey monofilaments (0.4, 1, 2, 4, 6, 8 and 15 grams). Each trial started with a von Frey force of 2 grams delivered to the right hindpaw for approximately 1-2 seconds and then the left hindpaw. If there was no withdrawal response, the next higher force was delivered. If there was a response, the next lower force was delivered. This procedure was performed until no response was made at the highest force (15 grams) or until four stimuli were administered following the initial response. Each test group contained 8 animals. The sham-operated control group, which were operated on but not subject to nerve ligation, contained 4 animals. […]

Series [4] concerns the target T2, NE uptake, mouse atria (Mus musculus, UniProt O55192).
T2 construct: host or cells: mouse atria
The note with it: Hyttel, 1980; cited from earlier work.

Series [5] in a line: Hygroscopicity of salt form. Format: physicochemical. The conditions noted are these: crystalline salt.
Series [6] relates to acetic acid-induced abdominal constriction. The conditions noted are these: cited from earlier work.
Series [7] concerns pain intensity. The note with it: study completers; Atkinson et al., 1999; cited from earlier work.

SMILES strings stand for the structures. pIC50, pKi: −log10 of the molar value. Entries after “also recorded” stand apart in the source; their conditions may differ.

T2 sequence (O55192 whole entry): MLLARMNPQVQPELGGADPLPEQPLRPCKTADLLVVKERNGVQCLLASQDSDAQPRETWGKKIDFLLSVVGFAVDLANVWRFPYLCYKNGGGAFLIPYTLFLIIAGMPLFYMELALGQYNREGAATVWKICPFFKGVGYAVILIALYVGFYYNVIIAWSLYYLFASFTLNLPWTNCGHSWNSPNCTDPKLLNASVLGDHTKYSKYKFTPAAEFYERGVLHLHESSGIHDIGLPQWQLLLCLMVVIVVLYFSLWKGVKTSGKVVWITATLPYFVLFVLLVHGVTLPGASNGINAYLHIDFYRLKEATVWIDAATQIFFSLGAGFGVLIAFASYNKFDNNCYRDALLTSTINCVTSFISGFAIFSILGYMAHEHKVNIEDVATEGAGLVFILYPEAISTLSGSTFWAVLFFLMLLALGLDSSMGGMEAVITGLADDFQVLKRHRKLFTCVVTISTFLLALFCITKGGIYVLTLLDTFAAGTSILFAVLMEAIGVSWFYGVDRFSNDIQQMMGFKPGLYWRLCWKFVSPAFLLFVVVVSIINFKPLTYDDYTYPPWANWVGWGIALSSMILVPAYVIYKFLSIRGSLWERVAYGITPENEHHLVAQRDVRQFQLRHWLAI
T1 sequence (P31645 whole entry): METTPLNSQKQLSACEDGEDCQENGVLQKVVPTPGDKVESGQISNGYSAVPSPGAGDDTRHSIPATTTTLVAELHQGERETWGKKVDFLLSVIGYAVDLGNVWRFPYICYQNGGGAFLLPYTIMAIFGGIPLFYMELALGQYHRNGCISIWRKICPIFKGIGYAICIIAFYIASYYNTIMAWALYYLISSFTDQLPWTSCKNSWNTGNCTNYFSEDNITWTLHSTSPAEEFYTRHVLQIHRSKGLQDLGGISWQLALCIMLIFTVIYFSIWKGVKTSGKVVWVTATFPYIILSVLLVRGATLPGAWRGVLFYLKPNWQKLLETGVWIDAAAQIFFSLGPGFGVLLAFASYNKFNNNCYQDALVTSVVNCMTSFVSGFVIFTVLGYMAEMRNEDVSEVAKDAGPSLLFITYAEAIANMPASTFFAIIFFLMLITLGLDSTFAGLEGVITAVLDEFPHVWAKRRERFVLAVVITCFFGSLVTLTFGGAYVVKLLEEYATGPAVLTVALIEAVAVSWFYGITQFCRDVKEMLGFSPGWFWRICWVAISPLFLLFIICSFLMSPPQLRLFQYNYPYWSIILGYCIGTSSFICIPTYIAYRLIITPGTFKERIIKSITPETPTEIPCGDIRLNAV
Sequence of human NE transporter (hNET) (P23975 whole entry): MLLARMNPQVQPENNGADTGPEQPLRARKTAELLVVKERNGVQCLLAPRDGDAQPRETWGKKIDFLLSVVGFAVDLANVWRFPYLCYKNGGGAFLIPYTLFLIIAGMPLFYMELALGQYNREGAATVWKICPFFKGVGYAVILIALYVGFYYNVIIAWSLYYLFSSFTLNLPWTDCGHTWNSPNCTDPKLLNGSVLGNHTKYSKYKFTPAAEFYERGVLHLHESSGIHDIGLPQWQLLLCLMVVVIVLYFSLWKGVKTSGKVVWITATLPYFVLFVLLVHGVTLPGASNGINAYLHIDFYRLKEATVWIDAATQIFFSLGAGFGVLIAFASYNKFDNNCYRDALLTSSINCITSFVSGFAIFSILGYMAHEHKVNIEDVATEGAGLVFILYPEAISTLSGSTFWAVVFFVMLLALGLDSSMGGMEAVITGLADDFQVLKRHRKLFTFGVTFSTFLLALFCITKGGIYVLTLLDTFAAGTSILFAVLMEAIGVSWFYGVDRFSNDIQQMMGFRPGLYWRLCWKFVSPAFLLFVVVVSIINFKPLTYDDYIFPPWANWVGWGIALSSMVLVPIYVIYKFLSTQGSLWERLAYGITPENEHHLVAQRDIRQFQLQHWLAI

Turning to `CNCC/C=C1\c2ccccc2CC(O)c2ccccc21` (racemic) [(±)-E-10-OH-NT, (S/R)-5-[3-Methylamino-prop-(E)-ylidene]-10,11-dihydro-5H-dibenzo[a,d]cyclohepten-10-ol, reference compound], the pKi in series [1] was 7.29; in series [2], 6.38. Moreover, the antiallodynic activity result in series [3] is “comparable to that of the vehicle-only control”. Moreover, the negative-log IC50 (pIC50) in series [4] is 6.89.

Take `CNCC/C=C1\c2ccccc2CC(O)c2ccccc21.O=C(O)CCC(=O)O` (single isomer, unassigned; (-)) [(−)-E-10-OH-NT Succinate]: the hygroscopicity result in series [5] is recorded as “non-hydroscopic; also recorded: non-hygroscopic”.

`COC1(C2=NCCN2)COc2ccccc2O1` (stereo not drawn) [RX821002, [2-(2-methoxy-1, -4-benzodioxan-2-yl)-2-imidazoline]]: in series [6] (doses up to 3 mg/kg, subcutaneously, by itself), the “inhibition of acetic acid-induced abdominal constriction” value is on record as “did not produce significant inhibition”.

For the compound `Clc1cccc(Cl)c1N=C1NCCN1` [clonidine], in series [6] (highest dose level, 1.0 mg/kg (s.c.)), the “protection against acetic acid-induced abdominal constriction” value was 100%.

As to `CNCCCC12CCC(c3ccccc31)c1ccccc12` [maprotiline], in series [7], the “reduction in pain intensity” value is 45%.

On to `Fc1ccc([C@@H]2CCNC[C@H]2COc2ccc3c(c2)OCO3)cc1` [paroxetine], for which the “reduction in pain intensity” value in series [7] was 26%.
